The text below walks through data of publication PMC8975978, “Bioassay-guided isolation of cytotoxic constituents from the flowers of Aquilaria sinensis” (Natural Products and Bioprospecting, 2022).

By IC50 is commonly meant the point on the concentration scale where inhibition reaches its midpoint.

In brackets after ≈: the same amount, converted by molar mass. Read-outs that look alike come from different tables or passages of the source. Bounds are passed on as bounds.

For assay [1], the system named is human normal bronchial epithelial BEAS-2B cells. In words: MTS cytotoxicity assay, normal BEAS-2B. In kind it is cell-based. The settings on record: read-out: IC50. The method, then:
(§1) It had better inhibition against lung cancer cell lines than against other cancer cell lines (Table 1). Thus, the next bioactivity-guided separations were conducted according to the cytotoxicities of the fractions against lung cancer cell lines (A-549, NCI-H520, and SPC-A-1), as well as normal BEAS-2B cells and paclitaxel-resistant lung cancer A549/Taxol cells.
(§2) The cytotoxicity activities were evaluated by MTS assay as previously described.

The subject of assay [2] is human lung adenocarcinoma A549 cells. The assay is described as follows: MTS cytotoxicity assay, A549. In kind it is cell-based. As to conditions: read-out: IC50. The method, then:
as §1, §2

The subject of assay [3] is paclitaxel-resistant A549 (A549/Taxol) cells. The assay is described as follows: MTS cytotoxicity assay, A549/Taxol. In kind it is cell-based, human. The settings on record: read-out: IC50. The method, then:
as §1, §2

Assay [4] deals with human lung adenocarcinoma SPC-A-1 cells. In words: MTS cytotoxicity assay, SPC-A-1. In kind it is cell-based. The settings on record: read-out: IC50. Here is the method:
as §1, §2

The subject of assay [5] is human lung squamous cell carcinoma NCI-H520 cells. The assay is described as follows: MTS cytotoxicity assay, NCI-H520. The settings on record: read-out: IC50. The class given is cell-based. Here is the method: as §1, §2
The subject of assay [6] is human large cell lung carcinoma NCI-H460 cells. The assay is described as follows: MTS cytotoxicity assay, NCI-H460. In kind it is cell-based. The settings on record: Homo sapiens; Table 1, NCI-H460; read-out: IC50. Here is the method:
as §1, §2
Background: Tetrazolium dyes change colour on reduction, which living cells bring about.

In assay [7] the test system is human breast cancer MDA-MB-231 cells. The assay is described as follows: MTS cytotoxicity assay, MDA-MB-231. The class given is cell-based. The settings on record: Homo sapiens; Table 1, MDA-MB-231; read-out: IC50. The method, then:
as §1, §2

Assay [8] concerns human cervical cancer HeLa cells. The assay is described as follows: MTS cytotoxicity assay, HeLa. The settings on record: Homo sapiens; Table 1, HeLa; read-out: IC50. The class given is cell-based. The method, then:
as §1, §2

Assay [9] deals with human hepatoma SMMC-7721 cells. In words: MTS cytotoxicity assay, SMMC-7721. In kind it is cell-based. As to conditions: Homo sapiens; Table 1, SMMC-7721; read-out: IC50.
In assay [10] the test system is human colon cancer Caco2 cells. In words: MTS cytotoxicity assay, Caco2. In kind it is cell-based. As to conditions: Caco-2, Table 1, Caco2.
Assay [11] has as its system human leukemia HL-60 cells. In words: MTS cytotoxicity assay, HL-60. The class given is cell-based. As to conditions: Homo sapiens; Table 1, HL-60; read-out: IC50. The method, then:
as §1, §2

Assay [12] has as its system human small cell lung cancer NCI-H446 cells. The assay is described as follows: MTS cytotoxicity assay, NCI-H446. The settings on record: Homo sapiens; Table 1, NCI-H446; read-out: IC50. In kind it is cell-based. The method, then: as §1, §2
The subject of assay [13] is human T-cell leukemia MT4 cells. In words: MTS cytotoxicity assay, MT4. In kind it is cell-based. As to conditions: Homo sapiens; Table 1, MT4; read-out: IC50. Here is the method: as §1, §2
For assay [14], the system named is human ovarian carcinoma SK-OV-3 cells. The assay is described as follows: MTS cytotoxicity assay, SK-OV-3. In kind it is cell-based. As to conditions: Homo sapiens; Table 1, SK-OV-3; read-out: IC50. The method, then:
as §1, §2

Assay [15] has as its system human neuroblastoma SH-SY5Y cells. In words: MTS cytotoxicity assay, SH-SY5Y. In kind it is cell-based. As to conditions: Homo sapiens; Table 1, SH-SY5Y; read-out: IC50. The method, then: as §1, §2
The subject of assay [16] is human breast cancer MCF-7 cells. In words: MTS cytotoxicity assay, MCF-7. In kind it is cell-based. As to conditions: Homo sapiens, MCF7; Table 1, MCF-7; read-out: IC50. The method, then: as §1, §2
For assay [17], the system named is human prostate cancer PC-3 cells. The assay is described as follows: MTS cytotoxicity assay, PC-3. In kind it is cell-based. As to conditions: Homo sapiens; Table 1, PC-3; read-out: IC50. The method, then:
as §1, §2

In assay [18] the test system is human colon cancer SW-480 cells. In words: MTS cytotoxicity assay, SW480. In kind it is cell-based. The settings on record: Homo sapiens; Table 1, SW480; read-out: IC50. Here is the method: as §1, §2
In another assay the test system is SK-MEL cells. Details: method as in PMID 28754541. The settings on record: cited from earlier work.
Assay [19] relates to SPC-A-1, NCI-H520, A549 and A549/Taxol cell lines. The assay is described as follows: MTS cytotoxicity assay, four tested lung cancer cell lines together. In kind it is cell-based, human. The settings on record: four tested cancer cell lines taken together (SPC-A-1, NCI-H520, A549, A549/Taxol). Here is the method: Thus, the next bioactivity-guided separations were conducted according to the cytotoxicities of the fractions against lung cancer cell lines (A-549, NCI-H520, and SPC-A-1), as well as normal BEAS-2B cells and paclitaxel-resistant lung cancer A549/Taxol cells.
Isolates 1–6 were evaluated for their cytotoxicities against SPC-A-1, NCI-H520, A549, A549/Taxol, and BEAS-2B cell lines (Table 5).
as §2

[20] abbreviates: Homo sapiens, BEAS-2B, Table 5, BEAS-2B normal cells.
The mark [21] stands for this setting: Homo sapiens, A549/Taxol, Table 5, A549/Taxol.
The mark [22] stands for this setting: Homo sapiens, SPCA1, Table 5, SPC-A-1.
Setting [23] is: Homo sapiens, Table 5, NCI-H520.

`COc1ccc(CCc2cc(=O)c3cc(OC)c(O)cc3o2)cc1` [Compound 6, 7-hydroxy-6-methoxy-2-[2-(4-methoxyphenyl)ethyl]-4H-1-benzopyran-4-one]: the IC50 is more than 40000 nM in assay [1] (setting [20]); 1520 ± 60 nM in assay [2] (Homo sapiens, Table 5, A549); 910 ± 10 nM in assay [3] (setting [21]); 1130 ± 30 nM in [4] (setting [22]); 1840 ± 160 nM in assay [5] (setting [23]).

On to `CC(=O)O[C@H]1C(=O)[C@@]2(C)[C@H]([C@H](OC(=O)c3ccccc3)[C@]3(O)C[C@H](OC(=O)[C@H](O)[C@@H](NC(=O)c4ccccc4)c4ccccc4)C(C)=C1C3(C)C)[C@]1(OC(C)=O)CO[C@@H]1C[C@@H]2O` [Paclitaxel], for which the IC50 in [1] (Homo sapiens, BEAS-2B, Table 1, BEAS-2B normal cells) was 3.66 ± 0.3 µg/mL; in assay [1] (Homo sapiens, BEAS-2B, Table 2, BEAS-2B normal cells) it was 1.85 ± 0.19 µg/mL; in [1] (Homo sapiens, BEAS-2B, Table 3, BEAS-2B normal cells), 2.04 ± 0.11 µg/mL; in assay [1] (Homo sapiens, BEAS-2B, Table 4, BEAS-2B normal cells), 1.94 ± 0.11 µg/mL; in assay [1] (setting [20]), more than 5000 nM; in [6], less than 0.007 µg/mL. In addition, the IC50 is less than 0.007 µg/mL in assay [2] (Homo sapiens, Table 1, A549); less than 8 nM in [2] (Homo sapiens, Table 5, A549); less than 0.007 µg/mL in assay [7]; less than 0.007 µg/mL in [8]; 0.15 ± 0.02 µg/mL (≈ 176 nM) in assay [9]; 0.02 ± 0.02 µg/mL (≈ 23.4 nM) in assay [10]. Besides, the IC50 is 0.54 ± 0.09 µg/mL in assay [3] (Homo sapiens, A549/Taxol, Table 2, A549/Taxol); 1.45 ± 0.12 µg/mL in [3] (Homo sapiens, A549/Taxol, Table 3, A549/Taxol); 0.96 ± 0.05 µg/mL in [3] (Homo sapiens, A549/Taxol, Table 4, A549/Taxol); 1800 ± 130 nM in assay [3] (setting [21]); less than 0.007 µg/mL in assay [11]; less than 0.007 µg/mL in assay [12]. The IC50 is less than 0.008 µg/mL in assay [13]; less than 0.007 µg/mL in assay [4] (Homo sapiens, SPCA1, Table 1, SPC-A-1); less than 8 nM in assay [4] (setting [22]); less than 0.007 µg/mL in assay [14]; 0.008 ± 0.001 µg/mL (≈ 9.37 nM) in [15]; less than 0.007 µg/mL in assay [5] (Homo sapiens, Table 1, NCI-H520). The IC50 in [5] (setting [23]) was less than 8 nM; in assay [16], less than 0.007 µg/mL; in assay [17] it was less than 0.007 µg/mL; in [18], less than 0.007 µg/mL.

With aquilaside B, the IC50 with SK-MEL cells is 17000 nM.

As for aquilaside C, the IC50 in the assay with SK-MEL cells is 12000 nM.

As for cucurbitacin B [Compound 4], the 50% inhibitory concentration (IC50) in assay [1] (Table 5, BEAS-2B normal cells) was 14400 ± 1360 nM; in assay [2] (Table 5, A549), 30 nM; in assay [3] (Table 5, A549/Taxol), 7 ± 1 nM; in assay [19], not above 30 nM; in assay [4] (Table 5, SPC-A-1), 16 nM; in assay [5] (Table 5, NCI-H520), 2 nM.
